This passage reports remaining activity results from patent US20110313156A1 (BOEHRINGER INGELHEIM INTERNATIONAL GMBH, priority 2008, published 2011).

For experiment [1], the target named is T1, ΔPH-PDK1 (aa 51-359; Q66A mutation) (Homo sapiens, UniProt O15530, Q66A).
T1 construct: a shortened PDK1 enzyme (aa 51-359; Q66A mutation) is used; His6 (N, cleaved yes)
T1 sequence (O15530 51-359 Q66A): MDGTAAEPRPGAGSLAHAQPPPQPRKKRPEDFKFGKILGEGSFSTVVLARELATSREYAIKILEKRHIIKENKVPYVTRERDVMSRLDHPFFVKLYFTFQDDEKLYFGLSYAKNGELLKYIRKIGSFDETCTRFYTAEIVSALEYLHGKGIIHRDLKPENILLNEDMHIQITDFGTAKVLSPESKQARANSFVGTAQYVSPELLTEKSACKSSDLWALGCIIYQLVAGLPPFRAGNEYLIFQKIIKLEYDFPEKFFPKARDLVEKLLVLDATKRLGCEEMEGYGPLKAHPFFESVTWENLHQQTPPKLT
Put plainly: PDK1 kinase assay II (shortened enzyme). The format is biochemical. As to conditions: compound at 10 μM, read-out: % CTL (residual activity of the enzyme relative to DMSO control). On the procedure: Another assay was developed in which a shortened PDK1 enzyme (aa 51-359; Q66A mutation) is used that carries in the N-terminal position a His6 tag that is cleaved during purification. (ΔPH-PDK1).
The following components are combined in a well of a 96-well round-based dish (Messrs. Greiner bio-one, No. 650101): • 15 μL of compound to be tested in varying concentrations (e.g. Starting at 10 μM, and diluted in steps of 1:5) in 3.33% DMSO (final concentration 1% DMSO)/assay buffer (50 mM Tris pH 7.5, 0.05% β-mercaptoethanol, 10 mM Mg-acetate) • 15 μL (ΔPH-PDK1; 12 ng/well) and PDKtide ([…]-QEMFRDFDYIADWC) synthesised by Pepceuticals Limited, Nottingham, United Kingdom; 25 μM final concentration); (ΔPH-PDK1 and PDKtide are together diluted accordingly in assay buffer; PDKtide is present in this mixture as an 83.3 μM solution. These 30 […] are incubated for 24 h at RT before ATP solution is added. • 20 μL ATP solution (25 μM ATP with 1.0 μCi/well gamma-P33-ATP)
The reaction is started by adding the ATP solution and the mixture is incubated for 120 min at ambient temperature; at the start of the reaction the dishes are shaken gently. The reaction is stopped by the addition of 50 μL/well of 500 mM phosphoric acid (H3PO4) and incubated for about 20 min at ambient temperature. The precipitate is transferred by harvesting onto filter plates (96-well microtitre filter plate: UniFilter GF/C; Messrs Perkin Elmer; No. 6005174), then washed 6 times with 50 mM H3PO4 and dried at 60° C. Then the plate is stuck down with sealing tape, 25 μL/well of scintillation solution (Microscint 0; Messrs. Perkin Elmer; No. 6013611) are added and the amount of P33 precipitated is measured using the Wallac Betacounter. The measured data are evaluated using Graphpad Prism software.
The % CTL values indicate the residual activity of the enzyme after the addition of the inhibitory compound in the solvent DMSO in relation to the enzyme activity in the solvent DMSO without the addition of a compound (control). The majority of the values were determined using the PDK1 kinase assay III described hereinbefore. The values marked with an asterisk (* or**) were determined using the PDK1 kinase assay II described hereinbefore (one asterisk→incubation for 24 h; two asterisks→incubation for 5 min)

The target of a further experiment is T2, His6-PDK1 (aa 52-556) (Homo sapiens, UniProt O15530).
T2 construct: 15 μL His6-PDK1 (aa 52-556) 3.33 ng/well); host or cells: baculovirus-infected insect cells
T2 sequence (O15530 52-556): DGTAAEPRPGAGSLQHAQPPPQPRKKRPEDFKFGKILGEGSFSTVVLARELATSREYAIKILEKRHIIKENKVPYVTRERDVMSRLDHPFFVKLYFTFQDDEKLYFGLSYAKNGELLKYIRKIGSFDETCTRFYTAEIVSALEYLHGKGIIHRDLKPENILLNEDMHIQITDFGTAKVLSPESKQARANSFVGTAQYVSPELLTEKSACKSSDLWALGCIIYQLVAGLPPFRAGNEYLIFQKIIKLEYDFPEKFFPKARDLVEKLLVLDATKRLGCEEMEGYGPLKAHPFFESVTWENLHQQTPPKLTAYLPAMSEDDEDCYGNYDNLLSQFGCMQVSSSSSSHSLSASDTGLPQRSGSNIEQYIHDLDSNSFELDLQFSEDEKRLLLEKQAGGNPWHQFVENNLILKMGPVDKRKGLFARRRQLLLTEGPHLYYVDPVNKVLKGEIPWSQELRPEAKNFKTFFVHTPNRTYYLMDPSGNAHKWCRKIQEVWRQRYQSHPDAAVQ
Briefly: PDK1 kinase assay III (with Tween 20). The format is biochemical. As to conditions: read-out: % CTL (residual activity of the enzyme relative to DMSO control). In short, it runs like this:
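Started with ATP, incubated 90 min at ambient temperature, then stopped with phosphoric acid. Asterisked values come from assay II (24 h or 5 min incubation).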

The mark [2] stands for this setting: one asterisk: incubation for 24 h.
[3] abbreviates: compound at 10 μM, PDK1 kinase assay III (values without asterisk).

Read-outs that look alike come from different tables or passages of the source.

`Cc1c(C(=O)NC/C=C/c2cc(OC3CCNCC3)c3nc(Nc4ccc(N5CCOCC5)cc4)ncc3c2)c(=O)n(Cc2ccc(F)c(F)c2)n1C`: the remaining activity at 10 µM in experiment [1] (setting [2]) stood at 8.9%. Take `Cc1c(C(=O)NCC#Cc2ccc3nc(Nc4ccc(C(=O)NCCO)cc4)ncc3c2)c(=O)n(Cc2ccc(F)c(F)c2)n1C`: the remaining activity at 10 µM in experiment [1] (setting [2]) worked out at 12.1%. Same read-out and setting: the figure for `Cc1ncc(C(=O)NC/C=C/c2ccc3nc(Nc4ccc(N(C)C5CCN(C)CC5)cc4)ncc3c2)c(=O)n1Cc1ccc(F)c(F)c1` is 5.8%; for `CN(C)Cc1c[nH]c(/C=C2\C(=O)Nc3cc(/C=C/CNC(=O)c4cncn(Cc5ccc(F)c(F)c5)c4=O)ccc32)c1` [I-15, 1-(3,4-difluorobenzyl)-N-{(2E)-3-[(3Z)-3-({4-[(dimethylamino)methyl]-1H-pyrrol-2-yl}methylidene)-2-oxo-2,3-dihydro-1H-indol-6-yl]prop-2-en-1-yl}-6-oxo-1,6-dihydropyrimidine-5-carboxamide] it is 15.7%; for `Cc1nc[nH]c1/C=C1\C(=O)Nc2cc(/C=C/CNC(=O)c3c(C)n(C)n(Cc4ccc(F)c(F)c4)c3=O)ccc21` [I-18, 2-(3,4-difluorobenzyl)-1,5-dimethyl-N-[(2E)-3-{(3Z)-3-[(4-methyl-1H-imidazol-5-yl)methylidene]-2-oxo-2,3-dihydro-1H-indol-6-yl}prop-2-en-1-yl]-3-oxo-2,3-dihydro-1H-pyrazole-4-carboxamide] it is 6.6%. Still for that read-out and setting: the figure for `C/C(=C\c1ccc2c(c1)NC(=O)/C2=C\c1cnc[nH]1)CNC(=O)c1cncn(Cc2ccc(F)c(F)c2)c1=O` [I-45, 1-(3,4-difluorobenzyl)-N-{(2E)-3-[(3Z)-3-(1H-imidazol-5-ylmethylidene)-2-oxo-2,3-dihydro-1H-indol-6-yl]-2-methylprop-2-en-1-yl}-6-oxo-1,6-dihydropyrimidine-5-carboxamide] is 7.9%. Turning to `CN(C)Cc1ccc(Nc2ncc3cc(C#CCNC(=O)c4cn(C)c(=O)n(Cc5ccc(F)c(F)c5)c4=O)ccc3n2)cc1` [III-21, 3-(3,4-difluorobenzyl)-N-{3-[2-({4-[(dimethylamino)methyl]phenyl}amino)-quinazolin-6-yl]prop-2-yn-1-yl}-1-methyl-2,4-dioxo-1,2,3,4-tetrahydropyrimidine-5-carboxamide], in experiment [1] (two asterisks: incubation for 5 min), the remaining activity at 10 µM worked out at 33%. For the compound `Cc1c(C(=O)NCC#Cc2cc3cnc(Nc4ccccc4)nc3n(C)c2=O)c(=O)n(Cc2ccc(F)c(F)c2)n1C` [III-23, 2-(3,4-difluorobenzyl)-1,5-dimethyl-N-{3-[8-methyl-7-oxo-2-(phenylamino)-7,8-dihydropyrido[2,3-d]pyrimidin-6-yl]prop-2-yn-1-yl}-3-oxo-2,3-dihydro-1H-pyrazole-4-carboxamide], the remaining activity at 10 µM in experiment [1] (setting [2]) came out at 9.1%.

Turning to `Cc1c(C#CCNC(=O)c2c(C)n(C)n(Cc3ccc(F)c(F)c3)c2=O)c(=O)n(C(C)C)c2nc(Nc3ccc(N4CCOCC4)cc3)ncc12` [III-28, 2-(3,4-difluorobenzyl)-1,5-dimethyl-N-{3-[5-methyl-2-{[4-(morpholin-4-yl)phenyl]amino}-7-oxo-8-(propane-2-yl)-7,8-dihydropyrido[2,3-d]pyrimidin-6-yl]prop-2-yn-1-yl}-3-oxo-2,3-dihydro-1H-pyrazole-4-carboxamide], the remaining activity at 10 µM in experiment [1] (setting [2]) is 13.8%. Still for that read-out and setting: the figure for `CN1CCC(Nc2ccc(Nc3ncc4cc(C#CCNC(=O)c5cncn(Cc6ccc(F)c(F)c6)c5=O)ccc4n3)cc2F)CC1` [III-31, 1-(3,4-difluorobenzyl)-N-{3-[2-({3-fluoro-4-[(1-methylpiperidin-4-yl)amino]-phenyl}amino)quinazolin-6-yl]prop-2-yn-1-yl}-6-oxo-1,6-dihydropyrimidine-5-carboxamide] is 6.5%. Still for that read-out and setting: the figure for `CN1CCN(c2ccc(Nc3ncc4cc(/C=C/CNC(=O)c5cncn(Cc6ccc(F)c(F)c6)c5=O)ccc4n3)cc2)CC1` [IV-4, 1-(3,4-difluorobenzyl)-N-[(2E)-3-(2-{[4-(4-methylpiperazin-1-yl)phenyl]-amino}quinazolin-6-yl)prop-2-en-1-yl]-6-oxo-1,6-dihydropyrimidine-5-carboxamide] is 67.3%; for `C/C(=C\c1ccc2nc(Nc3ccc(CN(C)C)cc3)ncc2c1)CNC(=O)c1cncn(Cc2ccc(F)c(F)c2)c1=O` [IV-28, 1-(3,4-difluorobenzyl)-N-{(2E)-3-[2-({4-[(dimethylamino)methyl]phenyl}amino)-quinazolin-6-yl]-2-methylprop-2-en-1-yl}-6-oxo-1,6-dihydropyrimidine-5-carboxamide] it is 27.9%; for `CN1CCC(N(C)c2ccc(Nc3ncc4cc(/C=C/CNC(=O)c5cc(Cl)nn(Cc6ccc(F)c(F)c6)c5=O)ccc4n3)cc2)CC1` [IV-40, 6-chloro-2-(3,4-difluorobenzyl)-N-{3-[2-({4-[methyl(1-methylpiperidin-4-yl)amino]phenyl}amino)quinazolin-6-yl]prop-2-en-1-yl}-3-oxo-2,3-dihydropyridazine-4-carboxamide] it is 25.4%. Same read-out and setting: the figure for `CC(=O)Nc1ccc(Nc2ncc3cc(/C=C/CNC(=O)c4cncn(Cc5ccc(F)c(F)c5)c4=O)ccc3n2)cc1` [IV-47, N-[(2E)-3-(2-{[4-(acetylamino)phenyl]amino}quinazolin-6-yl)prop-2-en-1-yl]-1-(3,4-difluorobenzyl)-6-oxo-1,6-dihydropyrimidine-5-carboxamide] is 16.6%. Take `Cc1c(C#CCNC(=O)c2c(C)n(C)n(Cc3ccc(F)c(F)c3)c2=O)c(=O)n(CCN)c2nc(Nc3ccc(N4CCOCC4)cc3)ncc12` [IV-60, N-{3-[8-(2-aminoethyl)-5-methyl-2-{[4-(morpholin-4-yl)phenyl]amino}-7-oxo-7,8-dihydropyrido[2,3-d]pyrimidin-6-yl]prop-2-yn-1-yl}-2-(3,4-difluorobenzyl)-1,5-dimethyl-3-oxo-2,3-dihydro-1H-pyrazole-4-carboxamide]: the remaining activity at 10 µM at His6-PDK1 (aa 52-556) (setting [3]) was determined as 13.3%. Same read-out and setting: the figure for `CN(C)Cc1ccc(Nc2ncc3cc(/C=C/CNC(=O)c4nc(Cl)cn(Cc5ccc(F)c(F)c5)c4=O)ccc3n2)cc1` [IV-61, 6-chloro-4-(3,4-difluorobenzyl)-N-{(2E)-3-[2-({4-[(dimethylamino)methyl]phenyl}amino)quinazolin-6-yl]prop-2-en-1-yl}-3-oxo-3,4-dihydropyrazine-2-carboxamide] is 13.9%. Still for that read-out and setting: then `O=C(NC/C=C/c1ccc2nc(Nc3ccccc3)ncc2c1)c1cncn(Cc2ccc(F)c(F)c2)c1=O` [IV-62], with 19.1%; and `CC(C)Nc1ncc2cc(/C=C/CNC(=O)c3cccn(Cc4ccc(F)c(F)c4)c3=O)ccc2n1` [IV-91], with 26.1%.

For `Cc1c(C(=O)NC/C=C/c2ccc3nc(NC(C)C)ncc3c2)c(=O)n(Cc2ccc(F)c(F)c2)n1C` [IV-92], the remaining activity at 10 µM at His6-PDK1 (aa 52-556) was determined as 21.6%.
